Here are results for 40 compounds from US7399775B2, “β-amyloid protein production/secretion inhibitor” (Daiichi Pharmaceutical Co., Ltd., priority 2001, dated 2008).

The structures appear in SMILES notation.

A word on the melting point: it is the temperature of the solid-liquid transition. `O=S(=O)(c1ccc(Cl)cc1)C(Cc1cccnc1)c1cc(F)ccc1F` (stereo not shown) [Example 219, 3-[2-[(4-Chlorophenyl)sulfonyl]-2-(2,5-difluorophenyl)ethyl]pyridine] gave a melting point of 162 to 163 °C.

`O=S(=O)(Cc1ccccc1)c1ccc(Cl)cc1` [Example 50, 1-Chloro-4-(benzylsulfonyl)benzene] registered a melting point of 147.5 to 148.5 °C.

With `Cl.O=C(NCCCC(c1cc(F)ccc1F)S(=O)(=O)c1ccc(Cl)cc1)c1cccnc1` (stereo not shown), the melting point fell in the range of 154 to 157 °C.

As for `CCC(C)CCC(c1cc(F)ccc1F)S(=O)(=O)c1ccc(Cl)cc1` (stereo not shown) [Example 326, 2-[1-(4-Chlorophenylsulfonyl)-4-methylhexyl]-1,4-difluorobenzene], the melting point lay within 56 to 58 °C.

`O=S(=O)(Cc1ccc(C(c2cc(F)ccc2F)S(=O)(=O)c2ccc(Cl)cc2)nc1)c1ccc(Cl)cc1` (stereo not shown) [Example 328, 2-[(4-Chlorophenylsulfonyl)-(2,5-difluorophenyl)methyl]-5-[(4-chlorophenylsulfonyl)methyl]pyridine] came in with a melting point of 186 to 187 °C.

The compound `O=C(NCCCC(c1cc(F)ccc1F)S(=O)(=O)c1ccc(Cl)cc1)OCCI` (stereo not shown) [Example 224, 2-Iodoethyl N-[4-[(4-chlorophenyl)sulfonyl]-4-(2,5-difluorophenyl)butyl]carbamate] displayed a melting point of 100 to 101 °C.

The compound `O=S(=O)(c1ccc(Cl)cc1)C(CCc1ccc(Cl)cc1)c1cc(F)ccc1F` (stereo not shown) [Example 310, 2-[3-(4-Chlorophenyl)-1-(4-chlorophenylsulfonyl)propyl]-1,4-difluorobenzene] showed a melting point of 124 to 126 °C.

As to `CCCCCCCC(c1cc(F)ccc1F)S(=O)(=O)c1ccc(Cl)cc1` (stereo not shown) [Example 324, 2-[1-(4-chlorophenylsulfonyl)octyl]-1,4-difluorobenzene], the melting point lay in the range of 47 to 48 °C.

`CN1CCC(c2cc(F)ccc2F)(S(=O)(=O)c2ccc(Cl)cc2)CC1` [Example 261, 4-[(4-Chlorophenyl)sulfonyl]-4-(2,5-difluorophenyl)-1-methylpiperidine]: the melting point was 172 to 175 °C.

Take `COC(=O)N1CCC(c2cc(F)ccc2F)(S(=O)(=O)c2ccc(Cl)cc2)CC1` [Example 267, Methyl 4-[(4-chlorophenyl)sulfonyl]-4-(2,5-difluorophenyl)-1-piperidinecarboxylate]: the melting point lay in the range of 123 to 126 °C.

`O=S(=O)(c1ccc(Cl)cc1)C(CCC1CCCCC1)c1cc(F)ccc1F` (stereo not shown) [Example 316, 2-[1-(4-Chlorophenylsulfonyl)-3-cyclohexylpropyl]-1,4-difluorobenzene] came in with a melting point of 82 to 83 °C.

For `O=C(O)c1ccc(C(c2cc(F)ccc2F)S(=O)(=O)c2ccc(Cl)cc2)nc1` (stereo not shown) [Example 338, [6-[(4-Chlorophenylsulfonyl)-(2,5-difluorophenyl)methyl]pyridin-3-yl]carboxylic Acid], the melting point was greater than 230 °C.

`O=S(=O)(c1ccc(Cl)cc1)C(C/C=C\CO)c1cc(F)ccc1F` (stereo not shown) [Example 247, (Z)-5-[(4-Chlorophenyl)sulfonyl]-5-(2,5-difluorophenyl)-2-penten-1-ol] returned a melting point of 60 to 63 °C.

Take `O=C(c1ccccc1)C(c1cc(F)ccc1F)S(=O)(=O)c1ccc(Cl)cc1` (stereo not shown) [Example 8, 2-[(4-Chlorophenyl)sulfonyl]-2-(2,5-difluorophenyl)-1-phenyl-1-ethanone]: the melting point fell in the range of 179.5 to 180 °C.

On to `O=C(O)CCC(c1cc(F)ccc1F)S(=O)(=O)c1ccc(Cl)cc1` (stereo not shown) [Example 200, 4-[(4-Chlorophenyl)sulfonyl]-4-(2,5-difluorophenyl)butyric Acid], for which the melting point lay within 157 to 158 °C.

Turning to `CC(CCCO)C(c1cc(F)ccc1F)S(=O)(=O)c1ccc(Cl)cc1` (stereo not shown) [Example 39, 5-[(4-Chlorophenyl)sulfonyl]-5-(2,5-difluorophenyl)-4-methyl-1-pentanol], the melting point lay within 84 to 86 °C.

Compound `O=C(O)CCCC(c1cc(F)ccc1F)S(=O)(=O)c1ccc(Cl)cc1` (stereo not shown) [Example 202, 5-[(4-chlorophenyl)sulfonyl]-5-(2,5-difluorophenyl)-1-valeric Acid] came in with a melting point of 151 to 152 °C.

`CS(=O)(=O)CCCCC(c1nccs1)S(=O)(=O)c1ccc(Cl)cc1` (stereo not shown) [Example 116, 2-[1-[(4-Chlorophenyl)sulfonyl]-5-(methylsulfonyl)pentyl]thiazole] showed a melting point of 118 to 119 °C.

As to `O=C(OCCC(c1cc(F)ccc1F)S(=O)(=O)c1ccc(Cl)cc1)N1CCOCC1` (stereo not shown) [Example 211, 3-[(4-Chlorophenyl)sulfonyl]-3-(2,5-difluorophenyl)propyl=4-morpholinecarboxylate], the melting point lay in the range of 140 to 141 °C.

With `CCCCCC(c1cc(F)ccc1F)S(=O)(=O)c1ccc(Cl)cc1` (stereo not shown) [Example 322, 2-[1-(4-Chlorophenylsulfonyl)hexyl]-1,4-difluorobenzene], the melting point was in the range of 68 to 69 °C.

In turn, `O=S(=O)(c1ccc(Cl)cc1)C1(c2cc(F)ccc2F)CC1` [Example 233, 2-[1-[(4-Chlorophenyl)sulfonyl]cyclopropyl]-1,4-difluorobenzene] came in with a melting point of 177 to 179 °C.

With `O=C(CC(c1cc(F)ccc1F)S(=O)(=O)c1ccc(Cl)cc1)N1CCCC1` (stereo not shown) [Example 198, 3-[(4-Chlorophenyl)sulfonyl]-3-(2,5-difluorophenyl)-1-(1-pyrrolildinyl)-1-propanone], the melting point is 122 to 125 °C.

For `COc1cccnc1C(c1cc(F)ccc1F)S(=O)(=O)c1ccc(Cl)cc1` (stereo not shown) [Example 139, 2-[[(4-Chlorophenyl)sulfonyl]-(2,5-difluorophenyl)methyl]-3-methoxypyridine], the melting point was 184 to 185 °C.

Regarding `O=S(=O)(c1ccc(Cl)cc1)C(Cc1ccc(F)cc1)c1cc(F)ccc1F` (stereo not shown) [Example 314, 2-[1-(4-Chlorophenylsulfonyl)-2-(4-fluorophenyl)ethyl]-1,4-difluorobenzene], the melting point is 151 to 153 °C.

The compound `CS(=O)(=O)N1CCC(c2cc(F)ccc2F)(S(=O)(=O)c2ccc(Cl)cc2)CC1` [Example 269, 4-[(4-Chlorophenyl)sulfonyl]-4-(2,5-difluorophenyl)-1-(methylsulfonyl)piperidine] yielded a melting point of 176 to 178 °C.

`CS(=O)(=O)CCCCC(c1cccc(F)c1)S(=O)(=O)c1ccc(Cl)cc1` (stereo not shown) [Example 54, 1-[1-[(4-Chlorophenyl)sulfonyl]-5-(methylsulfonyl)pentyl]-3-fluorobenzene] yielded a melting point of 116 to 117 °C.

Compound `O=C(OCCC(c1cc(F)ccc1F)S(=O)(=O)c1ccc(Cl)cc1)N1CCN(c2ccccc2)CC1` (stereo not shown) [Example 212, 3-[(4-Chlorophenyl)sulfonyl]-3-(2,5-difluorophenyl)propyl=4-phenyl1-piperazinecarboxylate] displayed a melting point of 127 to 129 °C.

`O=S(=O)(c1ccc(Cl)cc1)C1(c2cnccc2Cl)CCCCC1` [Example 110, 4-Chloro-3-[1-(4-chlorophenylsulfonyl)cyclohexyl]pyridine]: the melting point lay within 145 to 147 °C.

As for `Cc1ccnc(C(c2cc(F)ccc2F)S(=O)(=O)c2ccc(Cl)cc2)c1` (stereo not shown) [Example 138, 2-[[(4-Chlorophenyl)sulfonyl]-(2,5-difluorophenyl)methyl]-4-methylpyridine], the melting point was 116 to 117 °C.

Compound `CN(C)S(=O)(=O)NCc1ccc(C(c2cc(F)ccc2F)S(=O)(=O)c2ccc(Cl)cc2)nc1` (stereo not shown) [Example 356, N-[[6-[(4-Chlorophenylsulfonyl)(2,5-difluorophenyl)methyl]pyridin-3-yl]methyl]-N′,N′-dimethylsulfamide] came in with a melting point of 177 to 178 °C.

The compound `O=S(=O)(c1ccc(Cl)cc1)C(CCCCCCO)c1cc(F)ccc1F` (stereo not shown) [Example 274, 7-[(4-Chlorophenyl)sulfonyl]-7-(2,5-difluorophenyl)-1-heptanol] showed a melting point of 77 to 79 °C.

As to `C=COCCOCCC(c1cc(F)ccc1F)S(=O)(=O)c1ccc(Cl)cc1` (stereo not shown) [Example 34, 2-[1-[(4-Chlorophenyl)sulfonyl]-3-(2-vinyloxyethoxy)propyl]-1,4-difluorobenzene], the melting point is 55 to 56 °C.

Take `O=S(=O)(c1ccc(Cl)cc1)C(c1cc(F)ccc1F)c1cc(Cl)ncc1Cl` (stereo not shown) (hydrate or solvate) [Example 345, 2,5-Dichloro-4-[(4-chlorophenylsulfonyl)-(2,5-difluorophenyl)methyl]pyridine 0.5 hydrate]: the melting point lay in the range of 147 to 148 °C.

In the case of `CS(=O)(=O)CCCCC(c1cccc(Cl)c1F)S(=O)(=O)c1ccc(Cl)cc1` (stereo not shown) [Example 78, 1-Chloro-3-[1-(4-chlorophenylsulfonyl)-5-(methylsulfonyl)pentyl]-2-fluorobenzene], the melting point was 131 to 132 °C.

`COC(=O)/C=C/c1ccc(C(c2cc(F)ccc2F)S(=O)(=O)c2ccc(Cl)cc2)nc1` (stereo not shown) [Example 332, Methyl 3-[6-[(4-chlorophenylsulfonyl)-(2,5-difluorophenyl)methyl]pyridin-3-yl]acrylate] had a melting point of 145 to 146 °C.

`CC(C)(C)OC(=O)NCCCC(c1cc(F)ccc1F)S(=O)(=O)c1ccc(Cl)cc1` (stereo not shown) [Example 226, t-Butyl N-[4-[(4-chlorophenyl)sulfonyl]-4-(2,5-difluorophenyl)butyl]carbamate] had a melting point of 119 to 120 °C.

In the case of `O=S(=O)(c1ccc(Cl)cc1)C1(c2cc(F)ccc2F)CCCC1` [Example 30, 2-[1-[(4-Chlorophenyl)sulfonyl]cyclopentyl]-1,4-difluorobenzene], the melting point was 153 to 155 °C.

`O=S(=O)(c1ccc(Cl)cc1)C1(c2cc(F)ccc2F)CCCCCC1` [Example 275] showed a melting point of 101 to 103 °C.

In turn, `CC(CCO)C(c1cc(F)ccc1F)S(=O)(=O)c1ccc(Cl)cc1` (single isomer, unassigned) [Example 238, 4-(4-Chlorophenylsulfonyl)-4-(2,5-difluorophenyl)-3-methyl-1-butanol] gave a melting point of 111 to 112 °C.

`O=S(=O)(c1ccc(Cl)cc1)C(CCc1ccc(F)cc1)c1cc(F)ccc1F` (stereo not shown) [Example 309, 2-[1-(4-Chlorophenylsulfonyl)-3-(4-fluorophenyl)propyl]-1,4-difluorobenzene] registered a melting point of 131 to 132 °C.
